Measured values from patent US20220062299A1, “USE OF GLUCOCORTICOID STEROIDS IN PREVENTING AND TREATING CONDITIONS OF MUSCLE WASTING, AGING AND METABOLIC DISORDER” (NORTHWESTERN UNIVERSITY, priority 2018, published 2022).

Test system: mdx mice
Experiment: Dosing of metabolic and endocrine biomarkers in serum and tissues, mdx mice, 4-week daily or weekly prednisone
Assay type: in vivo
Conditions: 4-week treatment, mean ± s.e.m
Procedure: Animal handling and steroid regimens. Mice were housed in a pathogen-free dedicated vivarium in accordance with Institutional Animal Care and Use Committee (IACUC) guidelines. Euthanasia was performed through carbon dioxide inhalation followed by cervical dislocation and heart removal. All methods using living animals in this study were performed in ethical accordance with the American Veterinary Medical Association (AVMA) and under protocols fully approved by both the Institutional Animal Care and Use Committee (IACUC) at Northwestern University Feinberg School of Medicine (protocol number ISO00000761). Consistent with the ethical approvals, all efforts were made to minimize suffering. Mice were fed ad libitum with Mouse Breeder Sterilizable Diet (#7904; Harlan Teklad, Indianapolis, Ind.) and maintained on a 12-hour light/dark cycle. mdx mice from the DBA/2J background were obtained from the Jackson Laboratory (Bar Harbor, Me.; stock #013141) and interbred. Male mice were used for reported experiments. Age at start was approximately 6 months for short-term experiments, approximately 6 weeks for long-term experiments. Dysferlin-null (Dysf-null) mice from the 129T2/SvEmsJ background were previously characterized (Demonbreun et al., 2011; Demonbreun et al., 2014). Age at start was approximately 9 months for long-term experiments. For experiments with Dysf-null and wildtype mice, both females and males (approximately 1:1 ratio) were randomized in treatment groups. […] Dosing was based on weekly weight measurements (1 mg/kg body weight, (Sali et al., 2012)) in 100 μl total PBS volume per dose. […] On injection days, stock solutions stored at −20° C. were diluted into sterile Eppendorf tubes containing sterile phosphate buffered saline (PBS) (#14190; Thermo Fisher, Waltham, Mass.). Puromycin (cat #A1113803, Thermo Scientific, Waltham, Mass.) was administered i.p. as 0.040 μmol/body g, and tissues were snap-frozen 30 minutes after injection. Sterile BD Micro-Fine IV Insulin Syringes (#14-829-1A; Fisher Scientific, Waltham, Mass.) were used to inject the intraperitoneal cavity of non-sedated animals. All animal analyses both during treatment and at endpoint were conducted blinded to treatment groups.
Dosing of metabolic and endocrine biomarkers. Glycogen was quantitated using the Glycogen Assay Kit (#ab65620; Abcam, Cambridge, Mass.) from approximately 25 mg frozen-pulverized whole tissue, following manufacturer's instructions and internal standards for calculating μg/mg values. For measurement of whole-tissue ATP/NAD^+ levels, approximately 25 mg frozen-pulverized tissue was extracted in 10% perchloric acid and neutralized in 0.75 M K2CO3, as previously described (Ramsey et al., 2009). NAD+ and ATP were measured by high-pressure liquid chromatography (HPLC) with Shimadzu LC-20A pump (Shimadzu Scientific Instr Inc, Addison, Ill.) and UV-VIS detector, using a Supelco LC-18-T column (15 cm×[…]; #58970-U; Millipore-Sigma, St Louis, Mo.). […] ATP and NAD^+ eluted as sharp peaks at 3 and 14 minutes, respectively, and were normalized to tissue weight of frozen liver tissue for calculating pmol/mg values. Corticosterone was measured in mouse serum and cortisol was measured in human serum using dedicated ELISA kits (#ADI-900-097, Enzo Life Science, Farmingdale, N.Y.; #K7430-100, BioVision, Milpitas, Calif.) according to manufacturer's instructions and internal standards to calculate ng/ml values. Insulin levels were quantitated in mouse and human serum with species-specific ELISA kits (#10-1247-01 (mouse-specific); #10-1113-01 (human-specific); Mercodia, Uppsala, Sweden), following manufacturer's instructions and internal standards to calculate ng/ml values. Free fatty acids were quantitated using Enzychrom Free Fatty Acid Assay kit (#EFFA-100; BioAssay Systems, Hayward, Calif.), following kit's instructions and standards to calculate μM (serum) and nmol/mg (tissue) values. […]

## C[C@]12C=CC(=O)C=C1CC[C@@H]1[C@@H]2C(=O)C[C@@]2(C)[C@H]1CC[C@]2(O)C(=O)CO [prednisone, Prednisone]
Daily prednisone 1 mg/kg i.p.
  serum insulin: 3.09 ± 0.14 ng/mL
Daily prednisone
  serum BCAA: 657 ± 24.2 µM
  serum corticosterone: 127 ± 5.34 ng/mL
  serum free fatty acids: 546 ± 13.5 µM
  serum β-hydroxybutyrate: 476 ± 4.81 µM
  tissue BCAA, diaphragm: 64 ± 3.09 nmol/mg
  tissue BCAA, heart: 2.38 ± 0.09 nmol/mg
  tissue BCAA, omental fat: 28.2 ± 0.99 nmol/mg
  tissue BCAA, quadriceps: 118 ± 2.74 nmol/mg
  tissue free fatty acids, diaphragm: 2.07 ± 0.09 nmol/mg
  tissue free fatty acids, heart: 0.86 ± 0.03 nmol/mg
  tissue free fatty acids, omental fat: 6.01 ± 0.3 nmol/mg
  tissue free fatty acids, quadriceps: 4.11 ± 0.11 nmol/mg
  tissue β-hydroxybutyrate, diaphragm: 28.4 ± 0.93 nmol/mg
  tissue β-hydroxybutyrate, heart: 24.6 ± 0.88 nmol/mg
  tissue β-hydroxybutyrate, omental fat: 58.8 ± 2.29 nmol/mg
  tissue β-hydroxybutyrate, quadriceps: 31.8 ± 0.48 nmol/mg
Weekly prednisone 1 mg/kg i.p.
  serum insulin: 1.73 ± 0.07 ng/mL
Weekly prednisone
  serum BCAA: 457 ± 14.1 µM
  serum corticosterone: 194 ± 5.05 ng/mL
  serum free fatty acids: 386 ± 17.3 µM
  serum β-hydroxybutyrate: 425 ± 4.92 µM
  tissue BCAA, diaphragm: 43.8 ± 0.93 nmol/mg
  tissue BCAA, heart: 1.65 ± 0.07 nmol/mg
  tissue BCAA, omental fat: 18.1 ± 0.94 nmol/mg
  tissue BCAA, quadriceps: 89.6 ± 3.06 nmol/mg
  tissue free fatty acids, diaphragm: 1.11 ± 0.07 nmol/mg
  tissue free fatty acids, heart: 0.44 ± 0.02 nmol/mg
  tissue free fatty acids, omental fat: 4.35 ± 0.07 nmol/mg
  tissue free fatty acids, quadriceps: 1.25 ± 0.07 nmol/mg
  tissue β-hydroxybutyrate, diaphragm: 17.1 ± 0.77 nmol/mg
  tissue β-hydroxybutyrate, heart: 16.5 ± 0.56 nmol/mg
  tissue β-hydroxybutyrate, omental fat: 19 ± 0.39 nmol/mg
  tissue β-hydroxybutyrate, quadriceps: 16.4 ± 1.48 nmol/mg
